Where two headings read alike, the source gives them in different places. Each block holds one molecule with its values, some of them ahead of it.
Tests used:
BiP NBD [1] = target: T1, BiP NBD (Homo sapiens, UniProt P11021); assay: Exchange spectroscopy (EXSY) NMR of NBD apo / NBD·Pi exchange; format: binding; set-up: His6 (N, cleaved yes); made in house; host or cells: E. coli BL21-(DE3)-Lemo, pET28a vector; conditions: 25 °C, 400 μM BiP NBD, 200 μM phosphate
Procedure: ^13C-edited 2D Exchange Spectroscopy (EXSY) experiments were acquired to characterize the exchange between the NBD apo and NDB·Pi state (k3on, k3off). For this purpose, we used a modified methyl-TROSY experiment with an additional EXSY element prior to acquisition (90° ^1H – EXSY mixing delay – 90° ^1H)[49]. A recycle delay of 1 s was used in all experiments. The EXSY mixing times were set to 5, 50, 100, 200, 300, 400, 500, 600, 800, 1000, 1250, 1500 ms, with an average acquisition time of 120 min for each spectrum. The EXSY experiments were performed at 25 °C with a [U-^2H, ^15N, ^12C], Met-[^13CH3]^ε and Ile-[^13CH3]^δ1 BiP NBD sample at 400 μM in NMR buffer (25 mM HEPES, pH 7.5, 150 mM KCl and 20 mM MgCl2) with 200 μM of phosphate.

BiP NBD [2] = target: T1, BiP NBD; conditions: for tADP: Supplementary Fig 16b
Procedure: We next wanted to compare our determined kinetic rates of ADP dissociation, koff2 and koff5 , with a standard assay in the Hsp70 field that measures ADP lifetimes by ADP displacement.
The dissociation rate constants (koff) were determined by fitting the data to a one phase exponential function using a python script. […]
The red line corresponds to the mono-exponential fit of the data. […]
from 0.001 to 10 mM, in the absence of Pi (pink circles) and with 0.5 mM Pi (blue circles). Data points represent the mean for three independent experiments and the error bar represents the standard deviation. The half maximal inhibitory concentration (IC50) of Ca was calculated from three

BiP NBD [3] = target: T1, BiP NBD; assay: Equilibrium 2D methyl-TROSY NMR fingerprint spectra with ligands (ATP analogs, calcium); format: binding; set-up: His6 (N, cleaved yes); made in house; host or cells: E. coli BL21-(DE3)-Lemo, pET28a vector; conditions: 3.3 mM calcium, 10 mM magnesium
Procedure: First, we probed calcium binding to ADP-bound NBD by NMR equilibrium experiments. […] (Supplementary Fig. 15d). […] (Supplementary Fig. 16).
AMPPNP (adenylyl imidodiphosphate; Jena-bioscience), AMPPCP (adenylyl methylenediphosphate; Jena-bioscience) and ATP-γ-S (adenosine 5’-(gamma-thiotriphosphate; Jena-bioscience) were dissolved in the HKM reaction buffer (25 mM HEPES, pH 7.5, 150 mM KCl and 10 mM MgCl2) at a concentration of 50 mM directly before to be mixed with the BiP NBD sample. Samples were prepared fresh before each use to minimize the known instability of these analogs that undergo slow hydrolysis in solution.
Supplementary Figure 7. Analysis of the BiP NBD ATP-bound state. a, Combined methyl chemical shift differences between the APD·Pi-bound and the ATP-bound state of BiP NBD in-cyclo. The magnitude of 1 and 1.5 SDs are indicated by an orange and a red line, respectively. b, Overlay of 9 crystal structures of BiP NBD in presence of different nucleotides (colored sticks). c, Backbone root means square deviation (RMSD - Å) between the structures shown in (b) and the NBD apo state (PDB 3LDN). d, 2D [13C,1H]-TROSY spectrum of methyl-labeled BiP NBD in equilibrium with the ATP analogs AMPPNP (green), AMPPCP (orange) or ATP-γ-S (yellow), overlayed with the spectrum in-cyclo (pink).
State- and sequence-specific resonance assignments are indicated for the ADP-bound (light blue), ADP·Pi-bound (dark blue) and the ATP-bound (red) states in-cyclo.
(1 picture or pasted object on this page, not shown here)
Supplementary Figure 15. Mapping of calcium binding to BiP NBD. a, Selected details from published structures of BiP. From left to right: yeast BiP(NBD)-Mg2+-ADP (PDB 3QFU), human BiP(NBD)-Mg2+- ADP·Pi (PDB 5EVZ), human BiP(NBD)-Ca2+-ADP (PDB 6ZYH). b, Selected sections of 2D [13C,1H]-methyl-TROSY spectra of residue val50cg1 or Ile52cd1 for the equilibrium experiments of NBD apo (grey), NBD with 5 mM Pi (green), NBD with 1 mM ADP (light blue), NBD with 1 mM ADP·Pi (dark blue), NBD with 1 mM ADP-Ca2+ (dark-pink).and NBD with 3.3 mM calcium ([Mg2+]/[Ca2+]=3) (light-pink). c, Combined methyl chemical shift differences between the BiP NBD APD and the ADP-Ca2+-bound state. The magnitude of 1 and 1.5 SDs are indicated by a light blue and a dark blue line. d, Structure of NBD in […]
the ADP-Ca-bound state (PDB 6ZYH).

T1 sequence (P11021 19-406): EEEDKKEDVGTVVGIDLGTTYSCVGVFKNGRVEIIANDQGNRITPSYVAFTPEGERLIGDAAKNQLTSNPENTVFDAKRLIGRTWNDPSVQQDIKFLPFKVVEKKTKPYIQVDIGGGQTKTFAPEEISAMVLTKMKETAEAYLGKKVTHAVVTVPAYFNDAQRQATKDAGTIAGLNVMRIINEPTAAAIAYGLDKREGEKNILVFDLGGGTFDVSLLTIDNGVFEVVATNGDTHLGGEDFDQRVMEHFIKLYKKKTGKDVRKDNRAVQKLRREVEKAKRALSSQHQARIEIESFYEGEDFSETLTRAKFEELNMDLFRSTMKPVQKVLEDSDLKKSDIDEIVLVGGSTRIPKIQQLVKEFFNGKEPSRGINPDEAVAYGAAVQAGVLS

- koff3 (EXSY) (BiP NBD [1]): 1.32 ± 0.31 s⁻¹
- kon3 (EXSY) (BiP NBD [1]): 5000 ± 2000 M⁻¹ s⁻¹
SMILES: O=P(O)(O)O [Pi]

- tADP (BiP NBD [2]; Calcium 0.1 μM, second series ([Pi] 0.5 mM)): 52.28 s
- tADP (BiP NBD [2]; Calcium 0.1 μM, series without added Pi): 15.3 s
- tADP (BiP NBD [2]; Calcium 0.5 μM, second series ([Pi] 0.5 mM)): 45.66 s
- tADP (BiP NBD [2]; Calcium 0.5 μM, series without added Pi): 12.1 s
- tADP (BiP NBD [2]; Calcium 1 μM, second series ([Pi] 0.5 mM)): 50.78 s
- tADP (BiP NBD [2]; Calcium 1 μM, series without added Pi): 12.7 s
- tADP (BiP NBD [2]; Calcium 5 μM, second series ([Pi] 0.5 mM)): 54.19 s
- tADP (BiP NBD [2]; Calcium 5 μM, series without added Pi): 15.7 s
- tADP (BiP NBD [2]; Calcium 10 μM, second series ([Pi] 0.5 mM)): 50.03 s
- tADP (BiP NBD [2]; Calcium 10 μM, series without added Pi): 12.2 s
- tADP (BiP NBD [2]; Calcium 25 μM, series without added Pi): 16.2 s
- tADP (BiP NBD [2]; Calcium 50 μM, second series ([Pi] 0.5 mM)): 54.42 s
- tADP (BiP NBD [2]; Calcium 50 μM, series without added Pi): 16.2 s
- tADP (BiP NBD [2]; Calcium 75 μM, series without added Pi): 16.9 s
- tADP (BiP NBD [2]; Calcium 100 μM, second series ([Pi] 0.5 mM)): 49.18 s
- tADP (BiP NBD [2]; Calcium 100 μM, series without added Pi): 18.0 s
- tADP (BiP NBD [2]; Calcium 125 μM, series without added Pi): 19.5 s
- tADP (BiP NBD [2]; Calcium 150 μM, series without added Pi): 22.4 s
- tADP (BiP NBD [2]; Calcium 175 μM, series without added Pi): 21.2 s
- tADP (BiP NBD [2]; Calcium 200 μM, series without added Pi): 30.8 s
- tADP (BiP NBD [2]; Calcium 300 μM, series without added Pi): 33.0 s
- tADP (BiP NBD [2]; Calcium 400 μM, series without added Pi): 36.0 s
- tADP (BiP NBD [2]; Calcium 500 μM, second series ([Pi] 0.5 mM)): 44.74 s
- tADP (BiP NBD [2]; Calcium 500 μM, series without added Pi): 38.8 s
- tADP (BiP NBD [2]; Calcium 1000 μM, second series ([Pi] 0.5 mM)): 48.65 s
- tADP (BiP NBD [2]; Calcium 1000 μM, series without added Pi): 39.9 s
- tADP (BiP NBD [2]; Calcium 5000 μM, second series ([Pi] 0.5 mM)): 49.79 s
- tADP (BiP NBD [2]; Calcium 5000 μM, series without added Pi): 41.9 s
- IC50 (BiP NBD [2]; read-out: IC50 (ADP mean life as a function of calcium concentration), MABA-ADP release, no Pi, fixed 10 mM magnesium, calcium 0.001 to 10 mM): 212 ± 7 µM
- calcium binding to ADP-bound NBD (CSPs) (BiP NBD [3]): calcium binding occurred
SMILES: [Ca+2] [calcium]
- lifetime of bound ADP·Pi versus calcium concentration (BiP NBD [2]; in the presence of 0.5 mM phosphate): completely independent of the calcium concentration
